In patent publication US20080051372A1, “METHODS UTILIZING CELL-SIGNALING LYSOPHOSPHOLIPIDS” (THE SCRIPPS RESEARCH INSTITUTE, priority 2006, published 2008):

Experiments:
[1] = system: cortical neuronal progenitors (E14) plated onto cortical astrocyte monolayers; experiment: neuron-astrocyte co-culture on astrocytes previously treated with LPA; format: cell-based, mouse
Procedure: All animal protocols were approved by the Animal Research Committee of The Scripps Research Institute, conformed to National Institutes of Health guidelines and public law. Astrocyte primary cultures were prepared from cerebral cortex of newborn mice as previously described (de Sampaio e Spohr et al., Neuron-glia interaction effects on GFAP gene: a novel role for transforming growth factor-31, 2002, Eur J Neurosci, 16:2059-2069, incorporated herein by reference and Sousa et al., Glial fibrillary acidic protein gene promoter is differently modulated by transforming growth factor-beta 1 in astrocytes from distinct brain regions, 2004, Eur Neurosci, 19(7):1721-1730, incorporated by reference in its entirety). Astrocytes cultures were generated from C57B1/6 and Swiss mice. Briefly, after the mice were anesthetized, they were decapitated, brain structures were removed and the meninges were carefully stripped off. Dissociated cells were plated onto glass coverslips in 24 wells-plate (Corning Incorporated, NY), previously coated with polyornithine (1.5 μg/ml, mol. wt. 41,000, Sigma Chemical Co., St. Louis, Mo.), in DMEM/F12 medium supplemented with 10% fetal calf serum (Invitrogen, Carlsbad, Calif.). The cultures were incubated at 37° C. in a humidified 5% CO2, 95% air chamber for 10 days until reaching confluence. For experiments with LPA null mice, embryos from LPA, LPA2 double-heterozygous females (on a mixed background C57B1/6×129SW) were genotyped by PCR using DNA isolated from a small part of the tail (Contos et al., Requirement of the LPA, lysophosphatidic acid receptor gene in normal suckling behavior, 2000, PNAS, 97(24):13384-13389, incorporated herein by reference; Contos et al., Characterization of LPA(2) (Edg4) and LPA(I)/LPA(2) (edg2/Edg4) lysophosphatidic acid receptor knockout mice: signaling deficits without obvious pehotypic abnormality attributable to LPA(2), 2002, Mol Cell Bio, 22(19):6921-6929, incorporated herein by reference).
After reaching confluence, glial mono layers were washed three times with serum-free DMEM/F12 medium and incubated as previously described for an additional day in serum-free medium. Cultures were then treated with 1 μM LPA (Oleoyl-LPA, Avanti Polar Lipids) in DMEM/F12 supplemented with 0.1% fatty-acid free bovine serum albumin (FAFBSA, Sigma) for 4 hours. Control astrocyte carpets were treated with DMEM/F12 supplemented with 0.1% FAFBSA. Medium was then replaced by DMEM/F12 without serum and used as substrate in neuron-astrocyte assays.
For neuronal cultures, timed-pregnant BALB/c females (Simonsen Laboratories), C57B1/6 females or Swiss females were killed by halothane followed by cervical dislocation, and embryos were removed at the day 14 (E14). Cortical progenitors were prepared from cerebral hemispheres from E14 embryos as previously described (Martinez and Gomes, 2002, Neuritogenesis induced by thyroid hormone-treated astrocytes is mediated by epidermal growth factor/mitogen-activated protein kinase-phosphatidylinositol 3-kinase pathways and involves modulation of extracellular matrix proteins, J Biol Chem, 277:49311-49318, incorporated herein by reference; Sousa et al., 2004, Glial fibrillary acidic protein gene promoter is differently modulated by transforming growth factor-beta 1 in astrocytes from distinct brain regions, 2004, Eur J Neurosci 19(7):1721-17302004, incorporated herein by reference). Briefly, cells were freshly dissociated from cerebral hemispheres and 1×10^5 cells plated onto glial monolayer carpets non-treated or previously treated with LPA or LPA-conditioned medium for 4 hours as previously described. In the case of LPA CM assays, the medium was not replaced after 4 hours of treatment; instead it was left until the end of co-culture. Co-cultures were kept for 24 hours at 37° C. in a humidified 5% CO2, 95% air atmosphere. […]

[2] = system: TR mouse cerebral cortical immortalized neuroblast cells; experiment: LPA-like activity bioassay, cell rounding / neurite retraction; format: cell-based; conditions: concentrations from 1 to 100 nM of LPA; 15-30 minutes
Procedure: LPA-like activity was assayed by measuring morphological changes in TR mouse cerebral cortical immortalized neuroblast cells as previously described (Chun and Jaenisch, Clonal cell lines produced by infection of neocortical neuroblast using multiple oncogenes transduced by retroviruses, 1996, Mol Cell Neurosci, 18:379-383; Hecht et al., Ventricular zone gene-1 (vzg-I) encodes a lysophoshpatidic acid receptor expressed in neurogeneic regions of the developing cerebral cortex, 1996, J Cell Bio, 135:1071-1083, incorporated herein by reference; Ishii et al., Functional comparisons of the lysophosphatidic acid receptors, LPA(A1)IVZG-I/EDG-2, LP(A2)/EDG-4, and LP(A3)/EDG-7 in neuronal cell lines using a retrovirus expression system, 2000, Molecular Pharmacology, 58(5):895-902, incorporated herein by references; Fukushima et al., Lysophosphatidic acid influences the morphology and motility of young, postmitotic cortical neurons, 2002, Mol Cell Neurosci, 20(2):271-282, incorporated herein by reference). […] After this period, cells were fixed with 4% PFA and round cells were counted under phase-contrast optics (A-F). […]
After this period, cells were fixed with 4% PFA and round cells were counted under phase-contrast optics (A-F) The cell number was expressed by percentage of protophasmic, non-round population. […]

[3] = system: astrocyte primary cultures from wild type and LPA double-null newborn mice; experiment: astrocyte morphology and GFAP immunostaining after LPA; format: cell-based, mouse; conditions: 1 μM LPA for 24 hours; wild type and LPA1 LPA2 null astrocytes
Description: The Generation of Receptor-Null Mice Allows not Only Direct Examination of the systemic roles of LPA receptors in vivo (Contos et al., Requirement of the LPA1 lysophosphatidic acid receptor gene in normal suckling behavior, 2000, PNAS, 97(24):13384-13389, incorporated herein by reference; Contos et al., Characterization of LPA(2) (Edg4) and LPA(I)/LPA(2) (edg2/Edg4) lysophosphatidic acid receptor knockout mice: signaling deficits without obvious pehotypic abnormality attributable to LPA(2), 2002, Mol Cell Bio, 22(19):6921-6929, incorporated herein by reference) but it also contributes for further elucidation of LPA receptor-specific signaling pathways in receptor-null primary cells (Ishii et al., Functional comparisons of the lysophosphatidic acid receptors, LP(A1))/VZG-1/EDG-4, and LP(A3)/EDG-7 in neuronal cell lines using a retrovirus expression system, 2000, Mol. Pharmacology, 58:895-902, incorporated herein by reference). To determine whether LPA effects in the co-culture system are mediated by specific LPA receptors, astrocyte mono layers derived from mice with null mutations in both LPA1 and LPA2 receptors were prepared. Astrocyte primary cultures were prepared from cerebral cortex of wild type and LPA double-null newborn mice. Astrocyte mono layers were kept in DMEM/F12 medium supplemented with 10% fetal calf serum for days until reaching confluence. […]

[4] = system: cortical neuronal progenitors plated onto astrocyte monolayers derived from LPA1 LPA2 null mice; experiment: co-culture on LPA1 LPA2 null astrocytes previously treated with LPA; format: cell-based, mouse; conditions: P>0.05
Procedure: In order to address the involvement of LPA receptor in LPA-astrocyte effects on neuronal morphogenesis, cortical neuronal progenitors derived from E14 wild type mice were plated onto cortical astrocyte mono layers derived from LPA, LPA2 null mice previously treated with LPA. After 24 hours, cells were immunostained for the neuronal marker, β-tubulin III, and the number of neurons and arborization of their neurites were measured. […] The scale bar in FIG. 8 corresponds to 50 μm.

[5] = system: cortical neuronal progenitors on retroviral infected LPA1/LPA2 double-null astrocytes; experiment: retroviral rescue of LPA1/LPA2 double-null astrocytes, co-culture; format: cell-based, mouse
Procedure: Retroviral vectors expressing LPA1 or LPA2 were reported previously (Ishii et al., Functional comparisons of the lysophosphatidic acid receptors, LP(A1)/VZG-1/EDG-4, and LP(A3)/EDG-7 in neuronal cell lines using a retrovirus expression system, 2000, Mol. Pharmacology, 58:895-902, incorporated herein by reference) as depicted in FIG. 8A. LPA1/LPA2 double-null astrocytes were infected with the epitope-tagged LPA1, LPA2, or empty-vector control retrovirus in 4 μg/ml of polybrene to the media of subconfluent proliferating astrocytes plated in a monolayer. Plates were centrifuged (700 g) at 28° C. for 2 hours, and the astrocytes cultured for 48 hours in fresh media. Astrocytes were serum starved for another 24 hours and then used in the assays. Receptor expression was confirmed by epitope-tagged immunolabeling of GFP-positive cells.
The retroviral infected LPA1/LPA2 double-null astrocytes were treated with LPA. The astrocytes monolayers were co-cultured with cortical neuronal progenitors derived from E14 wild type mice. After 24 hours, cells were immunostained for the neuronal marker, β-tubulin III, and the number of neurons and arborization of their neurites were measured.

[6] = system: cultured embryonic hippocampal neurons; conditions: cited from earlier work
[7] = neurons plated onto LPA-treated astrocytes, P<0.05
[8] = double-null astrocytes infected with either the LPA1 or LPA2 retrovirus, treated with LPA

Substance | number of caspase positive cells (activated caspase-3) ([1]; after 24 hours of coculture, control vs treated cultures, P>0.05) | increase in the number of β-tubulin III positive cells ([1]; astrocytes treated with 1 μM LPA for 4 hours, 24 hours co-culture, vs control astrocytes, P<0.05) [%] | decrease in the number of aneuritic neurons [1, 7] [%] | neurons extending three or more neurites [1, 7] | number of neurons with two neurites [1, 7] | total number of cells ([1]; progenitor cells plated onto LPA-astrocyte monolayers, P>0.05) | rounding of TR cells [2] | astrocyte morphology [3] | neuronal population ([4]; LPA1 LPA2 null astrocytes treated with LPA, 24 hours) | neuronal death ([4]; treated vs non-treated LPA1 LPA2 null astrocytes) | prevalence of greater than two neurites/neurons [5, 8] | β-tubulin III cells [5, 8] | neuronal differentiation ([5]; double-null astrocytes infected with empty vector control virus (SOO3), primed with LPA) | neurite outgrowth [6]
Oleoyl-LPA | no difference | 41 | 64 | dramatic increase | significant increase | not altered | induced rounding | did not affect astrocyte morphology | did not affect neuronal population | did not differ | increased prevalence | increased | did not result in an increase | 
cyclic phosphatidic acid [cPA] |  |  |  |  |  |  |  |  |  |  |  |  |  | promoted neurite outgrowth
